The source of these data is US20120295923A1, “Aminocyclohexanes and Aminotetrahydropyrans and Related Compounds As Gamma-Secretase Modulators” (PFIZER INC., priority 2010, published 2012).

Structures are written as SMILES. Counter-ions that a name gives are not always drawn. Like-named read-outs stand apart in the source and are kept apart here.

The test system of the experiment is γ-secretase; production of amyloid beta protein Aβ(1-42). The experiment is described as follows: Cell-Based γ-Secretase Assay with ELISA Readout. Conditions: human WT-APP overexpressing CHO cells. The protocol:
The ability of compounds to modulate production of amyloid beta protein A6(1-42) was determined using human WT-APP overexpressing CHO cells. Cells were plated at 22,000 cells/100 μL well in 96 well tissue culture treated, clear plates (Falcon) in DMEM/F12 based medium and incubated for 24 hours at 37° C. Compounds for testing were diluted in 100% DMSO to achieve an eleven points, half log, dose response for IC50 determinations. Compounds were added in fresh medium to achieve 1% final DMSO. Appropriate vehicle and inhibitor controls were added to obtain maximum and minimum inhibition values for the assay before the plates were incubated for about 24 hours at 37° C.
Coating of ELISA assay plates was initiated by addition of 50 μL/well of an in-house Aβ(1-42) specific antibody at (4 μg/mL) in 0.1 M NaHCO3 (pH 9.0) into black 384-well Maxisorp® plates (Nunc) and incubated overnight at 4° C. The capture antibody was then aspirated from the ELISA assay plates and 100 μL/well of Blocking Buffer (Dulbecco's PBS, 1.5% BSA (Sigma A7030)) added. Ambient temperature incubation was allowed to proceed for a minimum of two hours before washing 2×100 μL with Wash Buffer (Dulbecco's PBS, 0.05% Tween 20). Assay Buffer (Dulbecco's PBS, 1.0% BSA (Sigma A7030), 0.05% Tween 20) 20 μL/well was then added.
After incubation overnight at 37° C., 5% CO2, 40 μL (in duplicate) of experimental conditioned media were transferred into wells of the blocked ELISA plates containing the capture antibody, followed by overnight incubation at 4° C.
After overnight incubation of the ELISA assay plates at 4° C., unbound Aβ peptides were removed thorough (4×100 μL) washes with Wash Buffer. Europium (Eu) labeled (custom labeled, Perkin Elmer) Aβ(1-16) 6e10 Monoclonal Antibody (Covance #SIG-39320 was added, (50 μL/well Eu-6e10 @ 1:5000, 20 uM EDTA) in Assay Buffer. Incubation at ambient temperature for a minimum of 2 hours was followed by (4×100 μL) washes with Wash Buffer, before 50 μL/well of Delfia Enhancement Solution (PerkinElmer) was added. Following a one hour ambient temperature incubation, the plates were read on an EnVision plate reader (PerkinElmer) using standard DELFIA TRF settings. Data analysis including inhibitory IC50 determination was performed using nonlinear regression fit analysis (in-house software) and the appropriate plate mean values for the maximum and minimum inhibition controls.
In general terms: ELISA stands for enzyme-linked immunosorbent assay.

[1] abbreviates: footnote 8: single determination, read-out: Aβ 42B IC50 (nM) (Geometric Mean of 2-8 Determinations).
Setting [2] is: geometric mean of 2-4 determinations unless otherwise indicated (footnote 10: 6-8; footnote 14: single determination), read-out: Aβ 42B IC50.

As a reminder, the IC50 is the concentration at which inhibition is half-maximal. For the compound `O=C(O)C[C@@H]1CC[C@@H](N(Cc2ccccc2F)CC2CCCC2)[C@H](c2ccc(C(F)(F)F)cc2)C1` [Example 27, {(1R,3S,4R)-4-[(cyclopentyl-methyl)(2-fluorobenzyl)amino]-3-[4-(trifluoromethyl)phenyl]cyclohexyl} acetic acid], the IC50 under setting [1] is 155 nM.
In the case of `O=C(O)C[C@@H]1CC[C@@H](N(Cc2cccc(F)c2)CC2CCCC2)[C@H](c2ccc(C(F)(F)F)cc2)C1` [Example 28, {(1R,3S,4R)-4-[(cyclopentyl-methyl)(3-fluorobenzyl)amino]-3-[4-(trifluoromethyl)phenyl]cyclohexyl} acetic acid, hydro-chloride salt], the IC50 under setting [1] is 230 nM.
Regarding `O=C(O)C[C@@H]1CC[C@@H](N2CC3(CCCC3)CC3(CCCC3)C2)[C@H](c2ccc(C(F)(F)F)cc2)C1` [Example 29, {(1R,3S,4R)-4-(13-azadispiro [4.1.4.3]tetradec-13-yl)-3-[4-(trifluoromethyl)phenyl]cyclohexyl} acetic acid], the IC50 under setting [1] came out at 193 nM.
On to `CC(C)CCN(C1CCOCC1)[C@@H]1CC[C@@H](CC(=O)O)C[C@H]1c1ccc(C(F)(F)F)cc1` [Example 30, {(1R,3S,4R)-4-[(3-methylbutyl)(tetrahydro-2H-pyran-4-yl)amino]-3-[4-(trifluoromethyl)phenyl]cyclohexyl}acetic acid, ammonium salt], for which, under setting [2], the IC50 was 7310 nM.
Still for that read-out and setting: the figure for `O=C(O)C[C@@H]1CC[C@@H](N(CC2CCCCC2)C2CCOCC2)[C@H](c2ccc(C(F)(F)F)cc2)C1` [Example 31, {(1R,3S,4R)-4-[(cyclohexylmethyl)(tetrahydro-2H-pyran-4-yl)amino]-3-[4-(trifluoromethyl)phenyl]cyclohexyl}acetic acid, ammonium salt] is 1300 nM.
On to `CC(C)CCN(CCC1CCCCC1)[C@@H]1CC[C@@H](CC(=O)O)C[C@H]1c1ccc(C(F)(F)F)cc1` [Example 32, {(1R,3S,4R)-4-[(2-cyclohexylethyl)(3-methylbutyl)amino]-3-[4-(trifluoromethyl)phenyl]cyclohexyl}acetic acid, trifluoroacetate salt], for which the half-maximal inhibitory concentration (IC50) under setting [2] turned out to be 598 nM.
With `CC(C)CCN(Cc1nccs1)[C@@H]1CC[C@@H](CC(=O)O)C[C@H]1c1ccc(C(F)(F)F)cc1` [Example 33, {(1R,3S,4R)-4-[(3-methylbutyl)(1,3-thiazol-2-ylmethyl)amino]-3-[4-(trifluoromethyl)phenyl]cyclohexyl}acetic acid, trifluoroacetate acid], under setting [2], the concentration for half-maximal inhibition (IC50) was found to be 3020 nM.
Still for that read-out and setting: under `CCC(C)CN(CC1CCCC1)[C@@H]1CC[C@@H](CC(=O)O)C[C@H]1c1ccc(C(F)(F)F)cc1` (stereo partly drawn) [Example 34, {(1R,3S,4R)-4-[(cyclopentylmethyl)(2-methylbutyl)amino]-3-[4-(trifluoromethyl)phenyl]cyclohexyl}acetic acid, ammonium salt] stands 359 nM.
As to `CC(C)(C)CCN(CC1CCCC1)[C@@H]1CC[C@@H](CC(=O)O)C[C@H]1c1ccc(C(F)(F)F)cc1` [Example 35, {(1R,3S,4R)-4-[(cyclopentylmethyl)(3,3-dimethylbutyl)amino]-3-[4-(trifluoromethyl)phenyl]cyclohexyl}acetic acid, ammonium salt], the IC50 under setting [2] was found to be 516 nM.
Regarding `CC(C)(C)CN(CC1CCCC1)[C@@H]1CC[C@@H](CC(=O)O)C[C@H]1c1ccc(C(F)(F)F)cc1` [Example 36, {(1R,3S,4R)-4-[(cyclopentylmethyl)(2,2-dimethylpropyl)amino]-3-[4-(trifluoromethyl)phenyl]cyclohexyl}acetic acid, ammonium salt], the IC50 under setting [2] stood at 349 nM.
For `CC(C)(C#N)CCN(CC1CCCC1)[C@@H]1CC[C@@H](CC(=O)O)C[C@H]1c1ccc(C(F)(F)F)cc1` [Example 37, {(1R,3S,4R)-4-[(3-cyano-3-methylbutyl)(cyclopentylmethyl)amino]-3-[4-(trifluoromethyl)phenyl]cyclohexyl}acetic acid, trifluoroacetate salt], the IC50 under setting [2] was 2170 nM.
`O=C(O)C[C@@H]1CC[C@@H](N(Cc2cncnc2)CC2CCCC2)[C@H](c2ccc(C(F)(F)F)cc2)C1` [Example 38, {(1R,3S,4R)-4-[(cyclopentylmethyl)(pyrimidin-5-ylmethyl)amino]-3-[4-(trifluoromethyl)phenyl]cyclohexyl}acetic acid, trifluoroacetate salt]: the IC50 under setting [2] was 5220 nM.
With `O=C(O)C[C@@H]1CC[C@@H](N(CC2CCCC2)CC2(F)CCCCC2)[C@H](c2ccc(C(F)(F)F)cc2)C1` [Example 39, {(1R,3S,4R)-4-{(cyclopentylmethyl)[(1-fluorocyclohexyl)methyl]amino}-3-[4-(trifluoromethyl)phenyl]cyclohexyl}acetic acid, ammonium salt], under setting [2], the IC50 worked out at 109 nM.
In the case of `O=C(O)C[C@@H]1CC[C@@H](N(CCC2CCCCC2)CC2CCCC2)[C@H](c2ccc(C(F)(F)F)cc2)C1` [Example 40, {(1R,3S,4R)-4-[(2-cyclohexylethyl)(cyclopentyl-methyl)amino]-3-[4-(trifluoromethyl)phenyl]cyclohexyl}acetic acid, trifluoroacetate salt], under setting [2], the IC50 is 621 nM.
With `O=C(O)C[C@@H]1CC[C@@H](N(CCC2CCCCO2)CC2CCCC2)[C@H](c2ccc(C(F)(F)F)cc2)C1` (stereo partly drawn) [Example 41, {(1R,3S,4R)-4-{(cyclopentylmethyl)[2-(tetrahydro-2H-pyran-2-yl)ethyl]amino}-3-[4-(trifluoromethyl)phenyl]cyclohexyl}acetic acid, trifluoroacetate salt], the IC50 under setting [2] is 5630 nM.
Take `O=C(O)C[C@@H]1CC[C@@H](N(Cc2cscn2)CC2CCCC2)[C@H](c2ccc(C(F)(F)F)cc2)C1` [Example 42, {(1R,3S,4R)-4-[(cyclopentylmethyl)(1,3-thiazol-4-ylmethyl)amino]-3-[4-(trifluoromethyl)phenyl]cyclohexyl}acetic acid, trifluoroacetate salt]: under setting [2], the IC50 stood at 1970 nM.
`CCC(CC)CN(CC1CCCC1)[C@@H]1CC[C@@H](CC(=O)O)C[C@H]1c1ccc(C(F)(F)F)cc1` [Example 43, {(1R,3S,4R)-4-[(cyclopentylmethyl)(2-ethylbutyl)amino]-3-[4-(trifluoromethyl)phenyl]cyclohexyl}acetic acid, trifluoroacetate salt]: under setting [2], the IC50 was 162 nM.
Turning to `CC(C)CN(CC1CCCC1)[C@@H]1CC[C@@H](CC(=O)O)C[C@H]1c1ccc(C(F)(F)F)cc1` [Example 44, {(1R,3S,4R)-4-[(cyclopentylmethyl)(isobutyl)amino]-3-[4-(trifluoromethyl)phenyl]cyclohexyl}acetic acid, trifluoroacetic salt], the IC50 under setting [2] was 318 nM.
Take `O=C(O)C[C@@H]1CC[C@@H](N(CCC(F)(F)F)CC2CCCC2)[C@H](c2ccc(C(F)(F)F)cc2)C1` [Example 45, {(1R,3S,4R)-4-[(cyclopentylmethyl)(3,3,3-trifluoropropyl)amino]-3-[4-(trifluoromethyl)phenyl]cyclohexyl}acetic acid, trifluoroacetate salt]: under setting [2], the IC50 worked out at 484 nM.
Turning to `N#Cc1ccc([C@@H]2O[C@H](CC(=O)O)CC[C@H]2N(CC2CCCC2)CC2CCCC2)cc1` [Example 46, [(2S,5R,6S)-5-[bis(cyclopentylmethyl)amino]-6-(4-cyanophenyl)tetrahydro-2H-pyran-2-yl]acetic acid, ammonium salt], the IC50 under setting [2] amounted to 2550 nM.
